Assays:
primary neurons [1] = experiment: Neuronal death; assay type: cell-based, mouse; conditions: CI inhibition
143B cells [2] = experiment: Lactate release in 143B cells (proxy of glycolysis); assay type: cell-based; conditions: 24 h
Method: (§1) Increased lactate secretion is considered a good indicator of enhanced glycolytic rates, which is a common feature of ETC-inhibited cells as they switch from OXPHOS to glycolysis to maintain ATP levels. […] We culture 143B cells in the presence of Piericidin for 24 h and PPP activity and lactate release, as a proxy of glycolysis, were measured. As expected, lactate detection in the media was higher in CI-inhibited cells. […] Next, we wonder if in this context, glucose can be overused by glycolysis and therefore diverted away from the PPP. Diseases associated with impaired mitochondrial function negatively impact high energy demanding tissues such as the brain. As such, neurons that are highly sensitive to ETC inhibition also rely strongly on glucose metabolism. Thus, we used mouse cortical neurons to determine the rates of glycolysis and PPP as glucose levels become limiting. Control and Piericidin treated neurons where cultured in media containing supraphysiological (25 mM), physiological (5 mM) or subphysiological concentrations of glucose (2,5 mM). […] Decreased PPP activity under low glucose (2,5 mM) correlated with a rapid decline in NADPH/NADP+ levels in CI-inhibited cells. Conversely, glucose availability had no effect on ATP levels at this timepoint.

primary neurons [3] = experiment: Patch-clamp capacitance analysis; assay type: cell-based, mouse; conditions: CI inhibition
Method: A glass coverslip containing mixed cortical cultures of 10-14 DIV was placed in an immersion chamber constantly perfused with aCSF (119 mM NaCl, 2.5 mM KCl, 2.5 mM CaCl2, 1.2 mM MgCl2, 26 mM NaHCO3, 1 mM NaH2PO4, 11 mM glucose pH adjusted to 7.4 and osmolarity to 290 ±5 mOsm) gassed with carbogen (5-10% CO2, 90-95% O2) and its temperature closely monitored at 29°C. Cells were recorded under current-clamp configuration with patch recording glass electrodes (4-6 MΩ) composed of silver/silver chloride electrodes inserted in glass pipettes filled with internal solution (115 mM K gluconate, 20 mM KCl, 10 mM HEPES, 2 mM MgCl2, 4 mM Na2-ATP, 0.3 mM Na3-GTP pH adjusted to 7.2-7.3 and osmolarity to 290 ±5 mOsm). Resting membrane potential was directly acquired from these recordings. Voltage responses to current injections of -100 pA were used to calculate whole-cell input resistance and membrane capacitance. This last parameter is calculated from the exponential time constant (τ) of the voltage change, as τ=R*C (R: input resistance, C: capacitance).
Data acquisition was carried out with MultiClamp 700 A/B amplifiers and pCLAMP 9/10 software (Molecular Devices). Data analysis was performed using Clampfit software (Molecular Devices).

mouse cortical neurons = experiment: PPP activity measurement in cortical neurons; assay type: cell-based
Method: Primary cultures of C57BL/6 mouse cortical neurons were prepared from embryos between embryonic days 16.5 and 17.5 and seeded onto pre-treated plates coated with Poly-L-lysine hydrobromide (500 µg/ml). We used Neurobasal medium without D-glucose and sodium pyruvate (ThermoFisher) to modulate D-glucose levels, depending on the experiment (2.5 mM, 5 mM, or 25 mM).
The determination of pentose-phosphate pathway (PPP) activity was conducted by assessing the difference between 14CO2 production from 1-14C-glucose, which decarboxylates through the 6-phosphogluconate dehydrogenase-catalyzed reaction, and that of 6-^14C-glucose, which decarboxylates through the tricarboxylic acid cycle.
as §1

143B cells [4] = experiment: Stable isotope tracing with uniformly labeled 13C-glutamine; assay type: cell-based; conditions: [U-13C]glutamine
Method: 1-5.0×10^6 cells were harvested on dry ice with 1 mL pre-chilled 80% HPLC-grade methanol (Fluka Analytical). The cell mixture was incubated for 15 min on dry ice prior to centrifugation at 18,000 × g for 10 min at 4°C. The supernatant was retained, and the remaining cell pellet was resuspended in 800 µL chilled 80% methanol and centrifuged. Supernatant was combined with the previous retention and was lyophilized using a SpeedVac (Thermo Fisher). Lyophilized samples were resuspended in 20 µL ultrapure water and subjected to metabolomics profiling using the AB/SCIEX 5500 QTRAP triple quadrupole instrument. Data analysis was performed using the GiTools software. 13C-labeled glutamine and glucose was acquired in SIGMA (605166 and 389374).
Encouraged by the beneficial effects of ME1 and because ME1-dependent NADPH production is linked to intracellular malate levels, we sought to investigate the metabolic pathways and nutrients that maintain malate production upon disruption of the ETC. It is firmly believed that in cells and tissues with defective ETC function, elevated NADH/NAD+ ratio inhibits the Pyruvate dehydrogenase complex (PDC), suppressing pyruvate entry into the mitochondria and forcing its channelling towards the Lactate Dehydrogenase (LDH) in the cytosol. […] To investigate the metabolic routes that ETC-inhibited cells used to generate glutamine-derived malate, we performed an MS-based stable isotope tracing study. DMSO and Piericidin treated 143B cells were cultured in glucose-DMEM supplemented with 2 mM of uniformly labeled [^13C]glutamine, and the incorporation of ^13C into the TCA cycle and related metabolic intermediates was quantified. Oxidative metabolism of [U-^13C]glutamine would generate M+4 isotopologues of oxaloacetate (OAA) and malate, while reductive carboxylation due to ETC inhibition (TCA cycle running in a counterclockwise direction) would produce M+3 forms of OAA and malate. DMSO-treated 143B cells used glutamine as the major anaplerotic precursor, resulting in a large amount of malate M+4. As expected, the oxidation of glutamine via the TCA cycle in CI-inhibited cells was severely diminished with a 5-fold decreased in M+4 labeled malate. Nevertheless, these cells produced citrate M+5 through reductive carboxylation of glutamine-derived a-ketoglutarate. This reaction involves addition of an unlabeled carbon by IDH2 acting in reverse relative to the canonical oxidative TCA cycle. Malate M+3 also rose more than a ~2-fold in CI-inhibited cells and was likely formed after cleavage of citrate M+5 by ATP-citrate lyase (ACLY) since this induction was blunted in ACLY KO cells. Thus, cells with defective ETC use glutamine-dependent reductive carboxylation rather than oxidative metabolism as the major pathway of malate production. […]

[5] = CI-inhibited vs DMSO 143B cells

CC=C(C)C(O)C(C)C=C(C)C=CCC(C)=CCc1nc(OC)c(OC)c(O)c1C (stereo not shown) [Piericidin, Piericidin A]
neuronal death (primary neurons [1]): did not correspond to an increase
lactate detection in the media (143B cells [2]): higher
capacitance (primary neurons [3]): lower
PPP activity (mouse cortical neurons; 5 mM glucose, did not reach statistical significance): trend towards reduced PPP activity
PPP activity (mouse cortical neurons; limited glucose availability (2,5 mM), 100 nM, 16 h): prominent drop
PPP activity (mouse cortical neurons; neurons cultured in 25 mM glucose, 100 nM, 16 h): significantly upregulation
decrease in M+4 labeled malate (143B cells [4]; [5]): 5 fold
rise of Malate M+3 (143B cells [4]; [5]): > 2 fold
labeling of malate M+3 (143B cells [4]; control and PC KO cells, 24 h): increasing
malate M+4 (143B cells [4]; control and PC KO cells, 24 h): reduction

Reference: patent publication EP4653001A1, “TREATMENT, DIAGNOSIS AND/OR PROGNOSIS OF MITOCHONDRIAL DISEASES” (Universidad Autónoma de Madrid, priority 2024, dated 2025)
